Measured values: EP3436445B1, “HISTONE DEMETHYLASE INHIBITORS” (Celgene Quanticel Research, Inc., priority 2016, dated 2017)

Experiments:
[1] = target: T1, PHF8 (Homo sapiens, UniProt Q9UPP1); assay: PHF8 in vitro enzyme inhibition assay (TR-FRET); format: biochemical; details: Table 3; 3 nM PHF8, H3K9me1-biotin labeled peptide
T1 construct: purchased Active Motif 31435
Description: (§1) This assay determines the ability of a test compound to inhibit FBXL11, FBXL10, and PHF8 demethylase activity. Baculovirus expressed FBXL11 (GenBank Accession #NM_012308, AA1-1162) was purchased from BPS Bioscience (Cat#50102). Baculovirus expressed FBXL10 (GenBank Accession #NM_032590, AA 1-650) was purchased from BPS Bioscience (Cat #50120). Baculovirus expressed PHF8 (GenBank Accession NP_055922.1) was purchased from Active Motif (Cat#31435).
The ability of test compounds to inhibit the activity of PHF8 was determined in 384-well plate format under the following reaction conditions: 3 nM PHF8, 200 nM H3K9me1-biotin labeled peptide (Anaspec cat #64358), 0.5 µM alpha-ketoglutaric acid in assay buffer of 50 mM HEPES, pH7.3, 0.005% Brij35, 0.5 mM TCEP, 0.2 mg/ml BSA, 50 µM sodium L-ascorbate, and 5 µM ammonium iron(II) sulfate. Reaction product was determined quantitatively by TR-FRET after the addition of detection reagent Phycolink Streptavidin-allophycocyanin (Prozyme) and Europium-anti-unmodified-histone H3 lysine 9/lysine27 (H3K9/K27) antibody (PerkinElmer) in the presence of 5 mM EDTA in LANCE detection buffer (PerkinElmer) at a final concentration of 25 nM and 0.5 nM, respectively.
The assay reaction was initiated by the following: 2 µl of the mixture of 600 nM H3K9me1-biotin labeled peptide and 1.5 µM alpha-ketoglutaric acid with 2 µl of 11-point serial diluted inhibitor in 3% DMSO were added to each well of the plate, followed by the addition of 2 µl of 9 nM PHF8 to initiate the reaction. The reaction mixture was incubated at room temperature for 15 minutes, and terminated by the addition of 6 µl of 5 mM EDTA in LANCE detection buffer containing 50 nM Phycolink Streptavidin-allophycocyanin and 1 nM Europium-anti-unmodified H3K9/K27 antibody. Plates were read by EnVision Multilabel Reader in TR-FRET mode (excitation at 320 nm, emission at 615 nm and 665 nm) after 1 hour incubation at room temperature. A ratio was calculated (665/615) for each well and fitted to determine inhibition constant (IC50).

[2] = target: T2, FBXL11 (Homo sapiens, UniProt Q9Y2K7); assay: FBXL11 in vitro enzyme inhibition assay (AlphaScreen); format: biochemical; details: Table 3; 0.15 nM FBXL11, H3K36me2-biotin labeled peptide
T2 construct: purchased BPS Bioscience 50102
T2 sequence (Q9Y2K7 1-1162): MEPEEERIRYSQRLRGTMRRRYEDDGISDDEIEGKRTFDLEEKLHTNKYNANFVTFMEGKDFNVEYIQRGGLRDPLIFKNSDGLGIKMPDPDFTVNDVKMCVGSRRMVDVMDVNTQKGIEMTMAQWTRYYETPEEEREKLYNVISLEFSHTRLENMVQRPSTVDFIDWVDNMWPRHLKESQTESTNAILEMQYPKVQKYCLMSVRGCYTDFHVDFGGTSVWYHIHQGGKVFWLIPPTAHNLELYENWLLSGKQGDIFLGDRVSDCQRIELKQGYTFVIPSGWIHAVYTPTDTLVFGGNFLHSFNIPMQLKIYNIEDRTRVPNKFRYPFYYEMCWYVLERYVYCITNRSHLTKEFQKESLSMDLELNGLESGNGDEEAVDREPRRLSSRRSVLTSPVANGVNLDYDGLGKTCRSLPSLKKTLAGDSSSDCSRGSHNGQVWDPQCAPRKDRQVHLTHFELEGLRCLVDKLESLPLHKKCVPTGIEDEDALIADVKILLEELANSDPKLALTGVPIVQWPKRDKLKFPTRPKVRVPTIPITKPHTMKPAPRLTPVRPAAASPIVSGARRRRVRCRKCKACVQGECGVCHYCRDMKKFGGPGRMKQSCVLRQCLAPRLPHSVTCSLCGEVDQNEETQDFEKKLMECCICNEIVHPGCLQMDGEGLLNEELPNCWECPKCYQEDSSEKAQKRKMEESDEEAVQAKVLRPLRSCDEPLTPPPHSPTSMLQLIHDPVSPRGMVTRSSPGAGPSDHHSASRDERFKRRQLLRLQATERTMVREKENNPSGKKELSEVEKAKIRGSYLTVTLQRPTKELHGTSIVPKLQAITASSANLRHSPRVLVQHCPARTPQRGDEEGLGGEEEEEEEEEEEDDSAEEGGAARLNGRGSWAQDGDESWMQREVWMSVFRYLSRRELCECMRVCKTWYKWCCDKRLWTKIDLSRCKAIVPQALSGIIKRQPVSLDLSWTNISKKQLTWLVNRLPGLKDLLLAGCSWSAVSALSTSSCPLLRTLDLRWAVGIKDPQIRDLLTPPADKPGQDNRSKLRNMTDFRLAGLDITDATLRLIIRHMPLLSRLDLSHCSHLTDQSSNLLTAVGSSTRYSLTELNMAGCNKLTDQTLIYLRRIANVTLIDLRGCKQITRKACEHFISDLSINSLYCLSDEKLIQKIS
Description: as §1
The ability of test compounds to inhibit the activity of FBXL11 was determined in 384-well plate format under the following reaction conditions: 0.15 nM FBXL11, 30 nM H3K36me2-biotin labeled peptide (Anaspec cat # 64442), 0.2 µM alpha-ketoglutaric acid in assay buffer of 50 mM HEPES, pH7.3, 0.005% Brij35, 0.5 mM TCEP, 0.2 mg/ml BSA, 50 µM sodium L-ascorbate, 5 µM ammonium iron(II) sulfate. Reaction product is determined quantitatively by AlphaScreen detection after the addition of detection reagents anti-H3K36me1 antibody, AlphaScreen® Streptavidin-coated Donor beads, and AlphaScreen® Protein A Acceptor beads in 50 mM HEPES, pH7.3, 10 mM NaCl, 0.005% Brij35, 5 mM EDTA, 2 mg/ml BSA to final 10 µg/ml beads.
The assay reaction was initiated by the following: 3 µl of the mixture of 90 nM H3K36me2-biotin labeled peptide and 0.6 µM alpha-ketoglutaric acid with 3 µl of 11-point serial diluted inhibitor in 3% DMSO are added to each well of 384 well Proxiplate (Perkin Elmer), followed by the addition of 3 µl of 0.45 nM FBXL11 to initiate the reaction. The reaction mixture is incubated at room temperature for 1 hour, and terminated by the addition of 3 µl of appropriate dilution of anti H3K36me1 antibody in 50 mM HEPES, pH7.3, 10 mM NaCl, 0.005% Brij35, 5 mM EDTA, 2 mg/ml BSA. Plates will then incubated at room temperature for 40 minutes, followed by addition of 3 µl of 50 µg/ml AlphaScreen® Streptavidin-coated Donor beads and AlphaScreen® Protein A Acceptor beads in 50 mM HEPES, pH7.3, 10 mM NaCl, 0.005% Brij35, 5 mM EDTA, 2 mg/ml BSA. Plates will then be read by EnVision Multilabel Reader in AlphaScreen mode after minimum 2 hour incubation at room temperature. The AlphaScreen signal for each well is used to determine inhibition constant (IC50).

T1 sequence (Q9UPP1 37-1060): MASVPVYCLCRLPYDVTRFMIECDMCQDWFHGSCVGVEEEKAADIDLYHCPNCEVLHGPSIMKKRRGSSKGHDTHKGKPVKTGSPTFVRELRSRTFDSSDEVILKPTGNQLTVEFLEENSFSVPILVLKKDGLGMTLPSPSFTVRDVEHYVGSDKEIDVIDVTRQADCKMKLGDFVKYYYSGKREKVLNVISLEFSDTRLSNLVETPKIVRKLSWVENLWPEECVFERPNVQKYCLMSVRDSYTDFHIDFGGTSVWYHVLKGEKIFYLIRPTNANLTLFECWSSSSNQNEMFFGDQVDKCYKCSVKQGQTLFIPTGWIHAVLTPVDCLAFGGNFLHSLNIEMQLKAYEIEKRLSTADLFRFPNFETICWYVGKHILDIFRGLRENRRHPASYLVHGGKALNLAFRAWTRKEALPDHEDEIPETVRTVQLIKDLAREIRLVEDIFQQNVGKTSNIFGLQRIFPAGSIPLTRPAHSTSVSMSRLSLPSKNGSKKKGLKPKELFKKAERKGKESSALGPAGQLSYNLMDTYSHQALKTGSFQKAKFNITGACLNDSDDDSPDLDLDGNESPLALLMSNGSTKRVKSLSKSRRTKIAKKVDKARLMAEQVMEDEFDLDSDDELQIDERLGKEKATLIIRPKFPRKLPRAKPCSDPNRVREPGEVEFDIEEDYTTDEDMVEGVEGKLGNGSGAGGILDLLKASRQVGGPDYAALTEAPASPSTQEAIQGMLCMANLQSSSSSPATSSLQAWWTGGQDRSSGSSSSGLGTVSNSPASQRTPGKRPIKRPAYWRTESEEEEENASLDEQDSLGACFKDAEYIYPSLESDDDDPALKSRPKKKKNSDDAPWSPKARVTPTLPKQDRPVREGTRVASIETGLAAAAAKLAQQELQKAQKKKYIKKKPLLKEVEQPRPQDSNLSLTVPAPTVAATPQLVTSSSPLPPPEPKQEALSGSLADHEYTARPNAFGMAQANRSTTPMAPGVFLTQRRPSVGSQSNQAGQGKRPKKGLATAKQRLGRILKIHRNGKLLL

Compound | IC50 [1] | IC50 [2]
Clc1ccc(Cn2cnc(-c3cc4[nH]nnc4cn3)c2)cc1Cl [Example 48, 1-[(3,4-dichlorophenyl)methyl]-4-{1H-[1,2,3]triazolo[4,5-c]pyridin-6-yl}-1H-imidazole] | 1000 to 10000 nM | ≤ 100 nM
Clc1ccccc1Cn1cnc(-c2cc3[nH]nnc3cn2)c1 [Example 45, 1-[(2-chlorophenyl)methyl]-4-{1H-[1,2,3]triazolo[4,5-c]pyridin-6-yl}-1H-imidazole] | 1000 to 10000 nM | ≤ 100 nM
c1ccc(Cn2cnc(-c3cc4[nH]nnc4cn3)c2)cc1 [Example 44, 1-benzyl-4-{1H-[1,2,3]triazolo[4,5-c]pyridin-6-yl}-1H-imidazole] | 100 to 1000 nM | ≤ 100 nM
Clc1cccc(Cn2cnc(-c3cc4[nH]nnc4cn3)c2)c1 [Example 46, 1-[(3-chlorophenyl)methyl]-4-{1H-[1,2,3]triazolo[4,5-c]pyridin-6-yl}-1H-imidazole] | 1000 to 10000 nM | ≤ 100 nM
Clc1ccc(Cn2cnc(-c3cc4[nH]nnc4cn3)c2)cc1 [Example 47, 1-[(4-chlorophenyl)methyl]-4-{1H-[1,2,3]triazolo[4,5-c]pyridin-6-yl}-1H-imidazole] | 1000 to 10000 nM | ≤ 100 nM
Clc1ccc(-n2cnc(-c3cc4[nH]nnc4cn3)c2)cc1 [Example 49, 1-(4-chlorophenyl)-4-{1H-[1,2,3]triazolo[4,5-c]pyridin-6-yl}-1H-imidazole] | 1000 to 10000 nM | ≤ 100 nM
Clc1ccccc1-n1cnc(-c2cc3[nH]nnc3cn2)c1 [Example 50, 1-(2-chlorophenyl)-4-{1H-[1,2,3]triazolo[4,5-c]pyridin-6-yl}-1H-imidazole] | 1000 to 10000 nM | ≤ 100 nM
Clc1cccc(-n2cnc(-c3cc4[nH]nnc4cn3)c2)c1 [Example 51, 1-(3-chlorophenyl)-4-{1H-[1,2,3]triazolo[4,5-c]pyridin-6-yl}-1H-imidazole] | 1000 to 10000 nM | 100 to 1000 nM
